Data on three compounds can be found in patent US4770998A, “Biochemical assay of aldehydes” (Mobil Oil Corporation, priority 1985, dated 1988).

The subject of data set [1] is Mouse lymphoma L5178Y cells (clone 3.7.2C). Nature of the data set: Mouse lymphoma mutagenicity assay (TK locus) with total growth, with S-9 activation, with FDH plus NAD. Conditions: 2.5 and 5.0 ug/ml.
Protocol: Mouse lymphoma L5178Y cells (clone 3.7.2C) ATCC CRL 9518 are preferred since these indicator cells are useful for mutagenicity as well as for toxicity assay.
The L5178Y mouse lymphoma indicator cells (clone 3.7.2C) are stored in liquid nitrogen. Cultures are thawed and are maintained in logarithmic growth by serial subculturing for up to six weeks. Cultures are grown at 37° C. in either a shaker incubator or a roller-harvester incubator. […] Cultures are cleansed on a weekly basis, as described by Clive et al. (1979), to reduce the frequency of spontaneous TK-/- mutants and thus maintain minimum mutant frequencies in the negative controls.
The medium for suspension culture of the cells is Fischer's medium (for leukemic mice) supplemented with heat-inactivated horse serum (10%, v/v), sodium pyruvate (1 mM) and Pluronic (0.1%, w/v). […]
Logarithmically growing cultures of recently cleansed lymphoma cells are counted and adjusted to 1×10^6 cells/ml for use in the assays. […]
An expression period of 2 days is used to allow recovery, growth and expression of the TK-/- phenotype. Cell population densities will be determined on Day 1 (approximately 24 hours after treatment) and is adjusted to 3×10^5 cells/ml to maintain optimal growth rates. Cell population densities are then determined on Day 2 (approximately 44 hours after treatment), and appropriated cultures selected for mutant analysis. […]
Data set [2] shares this test system. Nature of the data set: Mouse lymphoma mutagenicity assay (TK locus) with total growth, nonactivated (without S-9), with and without FDH plus NAD. It counts as cell-based. The protocol: All tests preferably are performed in duplicate.
In this example the dose-dependent mutagenic effect of formaldehyde on lymphoma cultures, both with and without FDH plus NAD, was investigated in the absence of S-9 activation.

For data set [3] the following is noted: known stoichiometric release; cited from earlier work.

For the compound `Cc1c2ccccc2c(C)c2c1ccc1ccccc12` [DMBA, 7,12-dimethylbenz[a]anthracene], in data set [1], the “reduction of mutagenicity with addition of FDH plus NAD” value is recorded as “No reduction of toxicity or mutagencity” and the “reduction of toxicity with addition of FDH plus NAD” value is “No reduction of toxicity or mutagencity”.
Consider `CCOS(C)(=O)=O` [EMS, ethylmethane sulfonate], for which, in data set [2] (0.5 and 1.0 ul/ml, without S-9), the “reduction of mutagenicity with addition of FDH plus NAD” value was “No reduction of toxicity or mutagenicity” and the “reduction of toxicity with addition of FDH plus NAD” value is listed as “No reduction of toxicity or mutagenicity”.
On to `O=[N+]([O-])C(CO)(CO)CO` [TNM, Tris-(hydroxymethyl) nitromethane], for which, in data set [3], the formaldehyde released is given as 3 mols of formaldehyde per mol of TNM. In addition, in data set [2], the “total growth / toxicity” value was “Dose dependent increases in toxicity and mutagenicity”; the “toxicity with FDH and NAD” value is listed as “absent”. In addition, in data set [2] (supplemented with FDH and NAD, without S-9), the “mutagenicity with FDH and NAD” value is “absent”. For the same compound, in data set [2] (without FDH/NAD, without S-9), the “mutant frequency / mutagenicity” value was “Dose dependent increases in toxicity and mutagenicity”.
